We go through six compounds from paper PMC7560626, “Active site competition is the mechanism for the inhibition of lipoprotein-associated phospholipase A2 by detergent micelles or lipoproteins and for the efficacy reduction of darapladib” (Scientific Reports, 2020).

Like-named read-outs stand apart in the source and are kept apart here.

Data set [1] concerns the target T1, Lp-PLA2 (Homo sapiens, UniProt Q13093).
T1 sequence (Q13093 22-441): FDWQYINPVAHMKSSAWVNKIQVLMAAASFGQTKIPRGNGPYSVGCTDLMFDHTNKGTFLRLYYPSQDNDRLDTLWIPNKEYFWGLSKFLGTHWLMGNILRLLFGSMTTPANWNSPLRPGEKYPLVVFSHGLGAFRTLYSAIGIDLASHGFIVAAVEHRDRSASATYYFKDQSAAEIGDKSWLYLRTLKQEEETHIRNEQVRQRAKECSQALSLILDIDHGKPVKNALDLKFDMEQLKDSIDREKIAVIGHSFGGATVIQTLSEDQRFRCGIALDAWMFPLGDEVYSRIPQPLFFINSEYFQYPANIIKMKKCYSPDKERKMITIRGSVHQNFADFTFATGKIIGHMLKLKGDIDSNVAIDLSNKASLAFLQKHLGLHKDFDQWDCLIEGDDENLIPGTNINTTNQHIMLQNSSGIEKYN
The data set can be described thus: Kinetics of hydrolysis of 14:0 NPS-PC by recombinant Lp-PLA2. Format: biochemical. The method, then: (a) Fitting of kinetic model for hydrolysis of 14:0 NPS-PC in the absence and presence of 10 mM CHAPS. […] Details are in Experiment Procedures. (c) Determination of CMC for 14:0 NPS-PC and CHAPS by anisotropy of polarized fluorescence using fluorescein as probe. Details are in Experiment Procedures.
Lp-PLA2 activity was assayed under different conditions and different methods were used. […] Purified recombinant Lp-PLA2 in storage buffer was diluted into TBS or PBS, pH 7.4–7.6, at the concentration of 1 µg/ml and 20 µl of the solution were used for each reaction. […] Generally, hydrolysis of 14:0 NPS-PC was monitored at 405 nm for 5 min under ambient temperature for all kinetic assays. […] Lp-PLA2 kinetic assays were performed in the same assay buffer with 14:0 NPS-PC concentrations as indicated. Assays were carried out in 96-well plates using a SpectraMax m2e plate reader. Hydrolysis of 14:0 NPS-PC was monitored at 405 nm for 5 min under ambient temperature. Serum Lp-PLA2 activity and mass concentration were measured by using PLAC activity and mass test kits (diaDexus) following the manufacturer's instruction. PLAC mass measurements were performed by manual ELISA and PLAC activity measurements were carried out by the Beckman Coulter AU400 analyzer as described in a previous publication. Twenty or forty μl of the fractionated sample per tube were used, depending on the Lp-PLA2 concentration of the samples. Ten mM CHAPS-modified PLAC ELISA test kits were made by adding solid CHAPS to the assay buffer to the final concentration of 10 mM. The assays follow the same instructions as the unmodified PLAC mass test kits. Other Lp-PLA2 activity assays are as indicated in figures or other experimental sections.

A short description of data set [2]: CMC by polarized fluorescence anisotropy with fluorescein as probe. Format: physicochemical. Conditions: TBS, pH 7.4. The method, then:
CMC of CHAPS and 14:0 NPS-PC were determined by polarized fluorescence anisotropy based on the method by Thorsteinsson et al.[21] with modification in a Varian Cary Eclipse fluorescence spectrophotometer using fluorescein as probe. Fluorescein was dissolved in TBS, pH 7.4, at final concentration of 0.1 µM. Solid CHAPS (control) or 14:0 NPS-PC was dissolved in TBS-fluorescein solution at concentrations indicated in figure and subjected to serial dilution in the same buffer. All fleshly prepared solutions were measured for fluorescence emission at 520 nm (excited at 490 nm) and compared the emission optics for the horizontal orientation to the vertical orientation. The anisotropy ratio of fluorescence intensities was plotted against the concentration incrementation of CHAPS or 14:0 NPS-PC. The anisotropy ratio was calculated as the followings. Anisotropyratior=IVV-G×IVH÷IVV+2×G×IVH where IVV indicates the intensity with vertically polarized excitation and vertical polarization on the detected emission. IVH indicates the intensity when using a vertical polarizer on the excitation and horizontal polarizer on the emission. G is a grating factor used as a correction for the instrument’s differential transmission of the two orthogonal vector orientations.
On the technique in general: Polarisation of emitted light reports the rotation of a fluorescent probe.

Data set [3] can be described thus: Distribution in bulk phase, detergent micelles and lipoproteins by SEC (TSKgel G3000SWXL). Format: physicochemical. On the procedure: Figure 8 Distribution of 14:0 NPS-PC and darapladib under different conditions. Assay methods are described in Experimental Procedures. (a) Distribution of 14:0 NPS-PC in TBS, pH 7.4, with and without detergents. Twenty µl of 14:0 NPS-PC at 10 µM were resolved by a TSKgel G3000SWXL column in TBS, pH 7.4, containing no detergent, 10 mM CHAPS or 60 µM Tween-20. Absorbance at 260 nm were monitored for 14:0 NPS-PC. Bulk phase is after fraction number 17 or after elution time 17 min. (b) Distribution of darapladib in TBS, pH 7.4, with and without detergents. Forty µl of darapladib in mobile phase buffer at 0.2 µM were resolved by a TSKgel G3000SWXL column in TBS, pH 7.4, containing no detergent, 10 mM CHAPS or 600 µM Tween-20. Relative darapladib concentration in each fraction was shown by inhibition of spiked Lp-PLA2. (c) Distribution of darapladib in TBS, pH 7.4, containing HDL or LDL. Forty µl of 1 mg/ml HDL or LDL with or without 0.2 µM darapladib were resolved by a TSKgel G3000SWXL column in TBS, pH 7.4. Relative darapladib concentration in each fraction was quantitated by inhibition of spiked Lp-PLA2. (d) Distribution of darapladib in human serum. Forty µl of neat human serum with or without 150 µM darapladib under the conditions as indicated were resolved by a TSKgel G3000SWXL column in TBS, pH 7.4. Relative darapladib concentration in each fraction was determined by inhibition of spiked Lp-PLA2.
Fractionation chromatography was carried out on an Akta10 or Akta100 by using a 10 mm × 300 mm Sperose-6 column at ambient temperature with the flow rate of 0.3 ml per minute. Fifty to two hundred µl of serum samples were injected per run depending on the Lp-PLA2 concentrations of the samples after the column was equilibrated with the running buffer (PBS, pH 7.2). Fraction collection was started at 21 min after sample injection and the collection volume was 0.6 ml/tube. Distribution of 14:0 NPS-PC and darapladib were carried out by separation of 20 – 40 µl of samples on a TSKgel G3000SWXL (7.8 mm × 30 cm, 5 µm) in TBS, pH 7.4, with and without detergents using a HPLC at flow rate of 0.8 ml/min. Fractions were collected at 1 min per tube starting at 6 min and ending at 21 min. Signal of 14:0 NPS-PC was detected by monitoring at 260 nm. Darapladib were assayed based on its inhibition of Lp-PLA2 activity. To one hundred µl of fraction, 10 µl of Lp-PLA2 at the concentration of approximately 0.5 µg/ml were added and the mixture was incubated at ambient temperature for 30 min with shaking. Reaction was started by adding 50 µl of mixture of CHAPS, SNS (sodium 1-nonane sulfonate) and 14:0 NPS-PC in buffer of 150 mM HEPES, pH 7.5, containing 12 mM EDTA. The final concentrations of CHAPS, SNS and 14:0 NPS-PC were 5 mM, 10 mM and 50 µM respectively. The hydrolysis reaction was monitored at 405 nm for 5 min. Fractions were also assayed for residual Lp-PLA2 activity by mixing in 100 µl fraction with 50 µl buffer of 150 mM HEPES, pH 7.5, containing 30 mM SNS, 30 mM CHAPS, 12 mM EDTA and 1.6 mM 14:0 NPS-PC.
Background: Size exclusion chromatography separates by hydrodynamic size, large species first.

For data set [4] the following is noted: in Fig. 1a; source not stated; cited from earlier work.
The test system of data set [5] is Lp-PLA2. Also on record: method as in PMID 25173516, PMID 24678955. Conditions: 160 mg daily for 12 weeks; cited from earlier work.

What is called Km is the concentration of substrate that gives half-maximal velocity. For orientation: Vmax means the top rate of the reaction or transport when substrate is in excess. For `CCCCCCCCCCCCCC(=O)OC[C@H](COP(=O)([O-])OCC[N+](C)(C)C)OC(=O)CCC(=O)Oc1ccc([N+](=O)[O-])cc1` [14:0 NPS-PC, 1-myristoyl-2-(4-nitrophenylsuccinyl)-sn-glycero-3-phosphocholine], the “Hill slope of the substrate titration curve” value on Lp-PLA2 [1] (absence of 10 mM CHAPS) is “approximately 2.0”; at Lp-PLA2 [1] (presence of 10 mM CHAPS), “approximately 1.0”. The Km is 238 ± 11.7 µM on Lp-PLA2 [1] (with 10 mM CHAPS) and 187 ± 18.5 µM at Lp-PLA2 [1] (without CHAPS). Moreover, the values for the Vmax at Lp-PLA2 [1] (with 10 mM CHAPS) and on Lp-PLA2 [1] (without CHAPS) were 187 ± 2 nmol/min/mL and 191 ± 5 nmol/min/mL, respectively. Further, in data set [2], the CMC was in the range of 0.5 to 1 mM. Also, in data set [3] (10 µM in TBS pH 7.4, absence of detergents), the “form in bulk phase” value is on record as “existed only as monomer”. For the same compound, in data set [3] (10 µM in TBS pH 7.4 in presence of detergents), the “monomeric fraction detected in bulk” value is reported as “Less than 5%”. Moreover, the “fraction in mixed micelles” value in data set [3] (10 µM in TBS pH 7.4 with 10 mM CHAPS or 60 µM Tween-20) is on record as over 95%.
Consider `C[C@H](CCC(=O)NCCC[N+](C)(C)CCCS(=O)(=O)[O-])[C@H]1CC[C@H]2[C@@H]3[C@H](O)C[C@@H]4C[C@H](O)CC[C@]4(C)[C@H]3C[C@H](O)[C@]12C` [CHAPS, 3-[(3-Cholamidopropyl)dimethylammonio]-1-propanesulfonate], for which the CMC in data set [4] is 6 to 10 mM; in data set [2] it was 5 to 10 mM.
Turning to `C[C@@H]1CC[C@@]2(OC1)O[C@H]1[C@@H](O)[C@H]3[C@@H]4CC[C@H]5C[C@@H](O[C@@H]6O[C@H](CO)[C@H](O[C@@H]7O[C@H](CO)[C@@H](O)[C@H](O[C@@H]8OC[C@@H](O)[C@H](O)[C@H]8O)[C@H]7O[C@@H]7O[C@H](CO)[C@H](O)[C@H](O[C@@H]8O[C@H](CO)[C@@H](O)[C@H](O)[C@H]8O)[C@H]7O)[C@H](O)[C@H]6O)[C@H](O)C[C@]5(C)[C@H]4CC[C@]3(C)[C@H]1[C@@H]2C` [Digitonin], in data set [4], the CMC is 0.09 mM.
Take `CCN(CC)CCN(Cc1ccc(-c2ccc(C(F)(F)F)cc2)cc1)C(=O)Cn1c(SCc2ccc(F)cc2)nc(=O)c2c1CCC2` [darapladib]: in data set [3] (0.2 µM in TBS pH 7.4, absence of detergents), the “detection in TBS buffer (solubility)” value is reported as “not detectable”. Besides, the solubilization by detergents result in data set [3] (0.2 µM in TBS pH 7.4 with 10 mM CHAPS or 0.6 mM Tween-20) is reported as “solubilized”. Also, the “reduction of Lp-PLA2 activity” value in the data set on Lp-PLA2 [5] is “approximately 66%”.
In the case of Triton X-100, the CMC in data set [4] was 0.3 mM.
On to Tween-20, for which, on Lp-PLA2 [1] (Lineweaver–Burk plots at different Tween-20 concentrations), the “mechanism of inhibition of Lp-PLA2” value is reported as “competitive”. For the same compound, the CMC in data set [4] is listed as 0.06 mM.
